Measurements as given in PMC9100920, “Crosstalk between β2- and α2-Adrenergic Receptors in the Regulation of B16F10 Melanoma Cell Proliferation” (International Journal of Molecular Sciences, 2022).
Read-outs that look alike come from different tables or passages of the source.

Target: T1, β2-AR (Mus musculus, UniProt P18762)
T1 construct: gene Adrb2
Assay: GloSensor cAMP concentration-response in B16F10 cells (endogenous receptor), agonist
Format: cell-based

T1 sequence (P18762 whole entry): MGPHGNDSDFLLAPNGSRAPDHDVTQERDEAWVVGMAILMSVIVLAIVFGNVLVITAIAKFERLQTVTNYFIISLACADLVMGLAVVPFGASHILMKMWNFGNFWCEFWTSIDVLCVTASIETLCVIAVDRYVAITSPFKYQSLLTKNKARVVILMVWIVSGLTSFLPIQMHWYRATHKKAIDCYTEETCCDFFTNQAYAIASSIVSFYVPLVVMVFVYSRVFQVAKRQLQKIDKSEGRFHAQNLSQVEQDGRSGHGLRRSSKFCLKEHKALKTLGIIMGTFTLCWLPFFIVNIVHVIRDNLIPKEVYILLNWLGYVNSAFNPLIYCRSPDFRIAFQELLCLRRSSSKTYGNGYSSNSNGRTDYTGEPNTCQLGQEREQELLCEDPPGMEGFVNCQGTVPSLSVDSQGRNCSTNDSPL

SMILES: NC[C@H](O)c1ccc(O)c(O)c1 [NE, norepinephrine]
- EC50 (read-out: EC50): 284 nM

SMILES: CNC[C@H](O)c1ccc(O)c(O)c1 [EPI, epinephrine]
- EC50: 45 nM
